Among the data in ChEMBL document CHEMBL1147906, “A comparative study of mesoionic compounds in Leishmania sp. and toxicity evaluation” (Eur J Med Chem, 2007) are EC50 and CC50 values, retold here.

The test system of data set [1] is Leishmania chagasi. Briefly: Antileishmanial activity against Leishmania chagasi MCAN/BR/97/P142 promastigotes. Format: functional. Conditions: read-out: ED50 (the source's name).
Data set [2] can be described thus: Cytotoxicity against BALB/c mouse peritoneal macrophages assessed as cell viability after 24 hrs by MTT assay. The format is cell-based, Peritoneal macrophage cell. The note with it: read-out: TD50. In general terms: Tetrazolium assays rely on reduction of a dye to a coloured formazan, in cell work by metabolically active cells.
The subject of data set [3] is Leishmania braziliensis. Briefly: Antileishmanial activity against Leishmania braziliensis MCAN/BR/98/R619 promastigotes. Conditions: read-out: ED50 (the source's name). Format: functional.

Consider `C(=C\c1sc(Nc2ccccc2)n[n+]1-c1ccccc1)/c1ccccc1`, for which the EC50 in data set [1] stood at 22.8 µM; in data set [3], 49.6 µM. Further, the CC50 at 24 h in data set [2] was determined as 3.06 µM.

`COc1ccc(/C=C/c2sc(Nc3ccccc3)n[n+]2-c2ccccc2)cc1`: the EC50 in data set [1] was 8.31 µM; in data set [3] it was 46.2 µM. The CC50 at 24 h in data set [2] worked out at 1.13 µM.

For the compound `O=[N+]([O-])c1ccc(/C=C/c2sc(Nc3ccccc3)n[n+]2-c2ccccc2)cc1`, the EC50 in data set [1] worked out at 22.8 µM; in data set [3] it was 70.8 µM. For the same compound, the CC50 at 24 h in data set [2] stood at 5.49 µM.

`Clc1ccc(/C=C/c2sc(Nc3ccccc3)n[n+]2-c2ccccc2)cc1`: the values for the EC50 in data set [1] and in data set [3] were 13.2 µM and 6.23 µM, respectively. Moreover, in data set [2], the CC50 at 24 h is 12 µM.

Consider `N#Cc1ccc(/C=C/c2sc(Nc3ccccc3)n[n+]2-c2ccccc2)cc1`, for which the EC50 turned out to be 16 µM in data set [1] and 28.1 µM in data set [3]. In addition, the CC50 at 24 h in data set [2] was found to be 441 µM.

`CCOc1ccc(/C=C/c2sc(Nc3ccccc3)n[n+]2-c2ccccc2)cc1`: the EC50 turned out to be 33.3 µM in data set [1] and 13 µM in data set [3]. The CC50 at 24 h in data set [2] turned out to be 9.73 µM.

Consider `O=[N+]([O-])c1cccc(/C=C/c2sc(Nc3ccccc3)n[n+]2-c2ccccc2)c1`, for which the EC50 in data set [1] is 23.6 µM; in data set [3] it was 221 µM. Moreover, the CC50 at 24 h in data set [2] is 5.54 µM.

In the case of `Clc1cccc(/C=C/c2sc(Nc3ccccc3)n[n+]2-c2ccccc2)c1`, the EC50 in data set [1] stood at 5.17 µM; in data set [3] it was 1.72 µM. Further, the CC50 at 24 h in data set [2] is 6.23 µM.

For `Brc1cccc(/C=C/c2sc(Nc3ccccc3)n[n+]2-c2ccccc2)c1`, the values for the EC50 in data set [1] and in data set [3] were 145 µM and 25.9 µM, respectively. Besides, in data set [2], the CC50 at 24 h was 2.47 µM.

In the case of `Cc1ccc(/C=C/c2sc(Nc3ccccc3)n[n+]2-c2ccccc2)cc1`, the EC50 in data set [1] came to 31.1 µM; in data set [3] it was 20.7 µM. The CC50 at 24 h in data set [2] was determined as 4.94 µM.

Take `Fc1ccc(/C=C/c2sc(Nc3ccccc3)n[n+]2-c2ccccc2)cc1`: the EC50 amounted to 3.42 µM in data set [1] and 5.1 µM in data set [3]. Further, the CC50 at 24 h in data set [2] was 5.82 µM.

On to `Brc1ccc(/C=C/c2sc(Nc3ccccc3)n[n+]2-c2ccccc2)cc1`, for which the EC50 in data set [1] was 9.97 µM; in data set [3], 2.93 µM. Further, the CC50 at 24 h in data set [2] came out at 6.59 µM.

For `Oc1ccc(/C=C/c2sc(Nc3ccccc3)n[n+]2-c2ccccc2)cc1`, the EC50 in data set [1] amounted to 415 µM; in data set [3], 376 µM. The CC50 at 24 h in data set [2] was 32 µM.

Regarding `COc1cccc(/C=C/c2sc(Nc3ccccc3)n[n+]2-c2ccccc2)c1`, the EC50 in data set [1] amounted to 4.75 µM; in data set [3], 30.6 µM. Further, in data set [2], the CC50 at 24 h was 0.61 µM.

Consider `N=C(N)c1ccc(OCCCCCOc2ccc(C(=N)N)cc2)cc1` [PENTAMIDINE], for which the EC50 in data set [1] amounted to 27.5 µM; in data set [3], 64.2 µM. The CC50 at 24 h in data set [2] came out at 2.21 µM.
